Legend:
stress ulcer = assay: Stress Ulcer Inhibition Test; assay type: in vivo, Male Wistar rats; conditions: Rattus norvegicus, 7 h, oral, Wistar rats, read-out: Inhibition ratio (stress ulcer)
Method: Experiment 1 Stress Ulcer Inhibition Test
(§1) The test drugs used were the compounds obtained in the foregoing Examples. Number in test drug column of Table 8 means a compound which is prepared in the correspondingly numbered Example.
Also, symbols A-E in test drug column of Table 8 mean the following compounds used as the control compounds.
The stress ulcer inhibition test was carried out according to a method of K. Takagi et al as described in Japan J. Pharmacol., vol. 18, page 9 (1968).
Male Wistar rats weighing 160 to 180 g (7 animals for each group), after a 24 hour-fast, were given orally the test drug (50 mg/kg and/or 100 mg/kg) suspended in 0.4% CMC, and placed in the stress cage made of a galvanized wire net, which was then immerged into the thermostatic water bath kept on 23° C. until the lower part of the sternum of the animals. Seven hours later, the animals were lapotomized to measure the area of the mucosa produced in the stomach, and the inhibition ration was calculated.

[1] = system: gastric lesions induced by 0.6 N hydrochloric acid; assay: Gastric Mucosal Protection Test (gastric lesions induced by 0.6 N hydrochloric acid); assay type: in vivo, Male Wistar rats; conditions: Rattus norvegicus, oral, Wistar rats, 0.6 N HCl, read-out: Inhibition ratio (lesion index, gastric mucosal protection)
Method: Experiment 2 Gastric Mucosal Protection Test
as §1
Also, symbols A-E in test drug column of Table 9 are as defined in Experiment 1.
The test of protection effect against the gastric lesions induced by 0.6 N hydrochloric acid (gastric mucosal protection effect) was carried out according to a method of A. Robert et al as described in Gastroenterology,vol. 77, pages 433-443 (1979).
Male Wistar rats weighing 180-210 g (7 animals for each group), after a 24 hour-fast, were given orally the test drug (50 mg/kg and/or 100 mg/kg) suspended in 0.4% CMC. After standing at room temperature for 2 hours, 0.6 N hydrochloric acid was given orally in a dose of 1 ml per rat. After standing at room temperature for a further one hour, rats were killed to measure the length of the gastric mucosal lesions induced in the stomachs, and total of the length was designated as the lesion index per rat.
The inhibition ratio (%) was calculated by comparison of the lesion index of the group treated with the test drug with the untreated group.

gastric acid secretion = assay: 2-DG-induced Acid Secretion Test, Gastric Lumen Perfused Rats; assay type: in vivo; conditions: intraperitoneal
Method: Experiment 3 2-DG-induced Acid Secretion Test Gastric Lumen Perfused Rats
The test was carried out according to the method of K. Watanabe et al in Eur. J. Pharmacology, vol. 90, page 11-17 (1983), and the inhibition ratio of gastric acid secretion of the test drug was calculated.
Number and symbol in test drug column are as defined above.
The test drug was given intraperitoneally.

Row | SMILES | inhibition in vivo at 50 mg/kg (stress ulcer) [%] | inhibition in vivo at 50 mg/kg [1] [%] | further results
1 | CC(C)=CCOc1ccc(C(=O)/C=C/c2ccc(C(=O)O)cc2)c(OCC(=O)O)c1 [A, 4-carboxy-2'-carboxymethoxy-4'-(3-methyl-2-butenyloxy)chalcone, reference compound] | < 10 | < 10 | 
2 | CC(C)=CCOc1ccc(C(=O)/C=C/c2ccc(OCC(=O)O)cc2)c(OCC(=O)O)c1 [B, 2',4-bis(carboxymethoxy)-4'-(3-methyl-2-butenyloxy)chalcone, reference compound] | < 10 | < 10 | 
3 | CC(C)=CCOc1ccc(/C=C/C(=O)c2ccc(OCC=C(C)C)cc2OCC(=O)O)cc1 [C, 2'-carboxymethoxy-4,4'-bis(3-methyl-2-butenyloxy)chalcone, reference compound] | < 10 | < 10 | Inhibition ratio of gastric acid secretion (gastric acid secretion; 200 mg/kg): 35.2%
4 | CC(C)=CCOc1ccc(C(=O)/C=C/c2ccc(C)cc2)c(OCC(=O)O)c1 [D, 2'-carboxymethoxy-4-methyl-4'-(3-methyl-2-butenyloxy)chalcone, reference compound] | < 10 | < 10 | inhibition in vivo at 100 mg/kg (stress ulcer): 26.2%
5 | CCCc1ccc(/C=C/C(=O)c2ccc(OCC=C(C)C)cc2OCC(=O)O)cc1 [E, 2'-carboxymethoxy-4'-(3-methyl-2-butenyloxy)-4-n-propylchalcone, reference compound] | 33.7 | 24.8 | inhibition in vivo at 100 mg/kg (stress ulcer): 57.1%
6 | CCCCCCCc1ccc(/C=C/C(=O)c2ccc(OCC=C(C)C)cc2OCC(=O)OCC)cc1 [Example 18] |  | 37.6 | inhibition in vivo at 100 mg/kg [1]: 53.8%
7 | CCC(C)c1ccc(/C=C/C(=O)c2ccc(OCC=C(C)C)cc2OCC(=O)O)cc1 (centres unmarked) [Example 24] | 70.5 |  | 
8 | CCCCc1ccc(/C=C/C(=O)c2ccc(OCC=C(C)C)cc2OCC(=O)O)cc1 [Example 25] | 61 |  | inhibition in vivo at 100 mg/kg (stress ulcer): 63%
9 | CCCCCc1ccc(/C=C/C(=O)c2ccc(OCC=C(C)C)cc2OCC(=O)O)cc1 [Example 27] | 86.3 |  | 
10 | CC(C)=CCOc1ccc(C(=O)/C=C/c2ccc(CCC(C)C)cc2)c(OCC(=O)O)c1 [Example 28] | 89 |  | 
11 | CCCCCCc1ccc(/C=C/C(=O)c2ccc(OCC=C(C)C)cc2OCC(=O)O)cc1 [Example 29, 2'-carboxymethoxy-4-n-hexyl-4'-(3-methyl-2-butenyloxy)chalcone] | 67.3 | 81.2 | inhibition in vivo at 100 mg/kg [1]: 83.7%
12 | CCCCCCCc1ccc(/C=C/C(=O)c2ccc(OCC=C(C)C)cc2OCC(=O)O)cc1 [Example 30, 2'-carboxymethoxy-4-n-heptyl-4'-(3-methyl-2-butenyloxy)chalcone] | 91.8 | 83.8 | inhibition in vivo at 100 mg/kg [1]: 94.4%
13 | CCCCCCCCc1ccc(/C=C/C(=O)c2ccc(OCC=C(C)C)cc2OCC(=O)O)cc1 [Example 31] | 77.2 |  | 
14 | CCCCCCCCCCCCCCCc1ccccc1/C=C/C(=O)c1ccc(OCC=C(C)C)cc1OCC(=O)O [Example 36] | 48.7 |  | 
15 | CC(C)=CCOc1ccc(C(=O)/C=C/c2ccc(C(C)(C)C)cc2)c(OCC(=O)O)c1 [Example 44, 4-t-butyl-2'-carboxymethoxy-4'-(3-methyl-2-butenyloxy)chalcone] | 76 | 61.9 | inhibition in vivo at 100 mg/kg (stress ulcer): 84.2%; Inhibition ratio of gastric acid secretion (gastric acid secretion; 30 mg/kg): 54.3%; Inhibition ratio of gastric acid secretion (gastric acid secretion; 100 mg/kg): 66.8%; inhibition in vivo at 100 mg/kg [1]: 82.8%
16 | CC(C)=CCOc1ccc(C(=O)/C=C/c2ccc(C(C)(C)C)cc2)c(OC(C)C(=O)O)c1 (centres unmarked) [Example 45, 4-(t-butyl)-2'-(1-carboxethoxy)-4'-(3-methyl-2-butenyloxy)chalcone] | 50.4 |  | 
17 | CCCCCCc1ccc(/C=C/C(=O)c2ccc(OCC=C(C)C)cc2OC(C)C(=O)O)cc1 (centres unmarked) [Example 46] | 63 |  | 
18 | CC(C)=CCOc1ccc(C(=O)/C=C/c2ccc(C(C)(C)C)cc2)c(OCCCC(=O)O)c1 [Example 48] |  |  | inhibition in vivo at 100 mg/kg (stress ulcer): 72%
19 | CCCCCC/C=C/c1ccc(/C=C/C(=O)c2ccc(OCC=C(C)C)cc2OCC(=O)O)cc1 [Example 49, 2'-carboxymethoxy-4'-(3-methyl-2-butenyloxy)-4-(1-(E)-octenyl)chalcone] | 76.6 |  | 
20 | CCCC/C=C/c1ccc(/C=C/C(=O)c2ccc(OCC=C(C)C)cc2OCC(=O)O)cc1 [Example 51] | 93.3 |  | 
21 | CCCCC/C=C/c1ccc(/C=C/C(=O)c2ccc(OCC=C(C)C)cc2OCC(=O)O)cc1 [Example 52] | 93.4 |  | 
22 | C=CCCc1ccc(/C=C/C(=O)c2ccc(OCC=C(C)C)cc2OCC(=O)O)cc1 [Example 54] | 56.9 |  | 

Source: patent publication US5089654A, “Chalcone derivatives” (Taisho Pharmaceutical Co., Ltd., priority 1989, dated 1992)
